For the series, the system named is mock-infected MT-4 cells. Kind of series: Compound toxicity in mock-infected MT-4 cells (WST-1 assay). The class given is cell-based. Conditions: four days incubation, read-out: TC50 (concentration of compound that results in death of 50% of the host cells). Here is the method:
The HTLV-1 transformed T cell line, MT-4, is highly susceptible to HIV-1 infection. Anti-HIV-1 agents were evaluated in this target cell line by protection from the HIV-induced cytopathic effect. In this assay, viability of both HIV-1 and mock-infected cells was assessed in a […] assay that monitors the ability of metabolically-active cells to reduce the tetrazolium salt WST-1. Cytoprotection by antiviral compounds is indicated by the positive readout of increased WST-1 cleavage.
Briefly, exponentially growing MT-4 cells were mock-infected or batch-infected with the HIV-1 laboratory strain, NL4-3, at a multiplicity of infection of 0.0005. Following a two hour infection, the cells were washed to remove unbound virus and plated in the presence of increasing concentrations of compound. After four days incubation, cytoprotection in the infected cells and compound toxicity in mock-infected cells were analyzed using the WST-1 assay.

Each structure is given as a SMILES string.

Consider `C=C(C)[C@@H]1CC[C@]2(C(=O)NCc3ccc(C(=O)O)cc3)CC[C@]3(C)[C@H](CC[C@@H]4[C@@]5(C)CC[C@H](OC(=O)CC(C)(C)C(=O)O)C(C)(C)[C@@H]5CC[C@]43C)[C@@H]12` [Compound 37], for which the CC50 was roughly 7.7 µM. Under `C=C(C)[C@@H]1CC[C@]2(C(=O)NCc3ccccc3C(=O)O)CC[C@]3(C)[C@H](CC[C@@H]4[C@@]5(C)CC[C@H](OC(=O)CC(C)(C)C(=O)O)C(C)(C)[C@@H]5CC[C@]43C)[C@@H]12` [Compound 39] stands roughly 6.3 µM.

Source of the values: US20090149429A1, “ANTIVIRAL COMPOUNDS” (Myriad Genetics, Incorporated, priority 2005, published 2009).
